Measurements published in US8415342B2, “Besifloxacin ophthalmic composition for the treatment or control of infection” (Bausch & Lomb Incorporated, priority 2008, dated 2013).
≈ marks a conversion by molar mass, not a printed value. Like-named read-outs stand apart in the source and are kept apart here.

Columns and labels:
Type in all cases: cell-based
[1] = tested on: Klebsiella oxytoca; test: MIC, CLSI broth microdilution, clinical isolates; conditions: Klebsiella oxytoca (N = 50)
[2] = tested on: Moraxella catarrhalis; test: MIC, CLSI broth microdilution, clinical isolates; conditions: Moraxella catarrhalis (N = 101)
[3] = tested on: Lancefield group C, F, G streptococci; test: MIC, CLSI broth microdilution, clinical isolates; conditions: G streptococci (N = 50)
[4] = tested on: Staphylococcus epidermidis; test: MIC, CLSI broth microdilution, clinical isolates; conditions: for MIC50: Staphylococcus epidermidis
[5] = tested on: Staphylococcus haemolyticus; test: MIC, CLSI broth microdilution, clinical isolates; conditions: Staphylococcus haemolyticus (N = 101)
[6] = tested on: Streptococcus pyogenes; test: MIC, CLSI broth microdilution, clinical isolates; conditions: Streptococcus pyogenes (N = 101)
[7] = tested on: Staphylococcus warneri; test: MIC, CLSI broth microdilution, clinical isolates; conditions: Staphylococcus warneri (N = 50)
[8] = tested on: Legionella pneumophila; test: microbe, parasite or virus in culture
[9] = tested on: Staphylococcus lugdunensis; test: MIC, CLSI broth microdilution, clinical isolates; conditions: Staphylococcus lugdunensis (N = 15)
[10] = tested on: S. epidermidis; test: MIC of clinical trial isolates, Studies 373, 433, 434; conditions: Staphylococcus epidermidis, read-out: MIC90
[11] = tested on: Streptococcus agalactiae; test: MIC, CLSI broth microdilution, clinical isolates; conditions: Streptococcus agalactiae (N = 100)
[12] = tested on: Streptococcus pneumoniae; test: MIC, CLSI broth microdilution, clinical isolates
[13] = tested on: Haemophilus influenzae; test: MIC, CLSI broth microdilution, clinical isolates; conditions: for MIC50 / MIC90: Haemophilus influenzae
[14] = tested on: Viridans streptococci; test: MIC, CLSI broth microdilution, clinical isolates; conditions: Viridans streptococci (N = 156)
[15] = tested on: S. pneumoniae; test: MIC and MBC:MIC ratio, recent ocular isolates; conditions: S. pneumoniae (N = 35), recent ocular isolates
[16] = tested on: Staphylococcus saprophyticus; test: MIC, CLSI broth microdilution, clinical isolates; conditions: Staphylococcus saprophyticus (N = 101)
[17] = tested on: Citrobacter koseri; test: MIC, CLSI broth microdilution, clinical isolates; conditions: Citrobacter koseri (N = 100)
[18] = tested on: Staphylococcus hominis; test: MIC, CLSI broth microdilution, clinical isolates; conditions: Staphylococcus hominis (N = 50)
[19] = tested on: S. aureus; test: MIC of clinical trial isolates, Studies 373, 433, 434; conditions: Staphylococcus aureus
[20] = tested on: Morganella morganii; test: MIC, CLSI broth microdilution, clinical isolates; conditions: Morganella morganii (N = 51)
[21] = tested on: Staphylococcus aureus; test: MIC, CLSI broth microdilution, clinical isolates; conditions: for MIC50 / MIC90: Staphylococcus aureus
[22] = Staphylococcus epidermidis (CNS, N = 6)
[23] = Staphylococcus epidermidis (CS, N = 9)
[24] = Staphylococcus epidermidis (MSSE, N = 6)
[25] = Staphylococcus epidermidis (all phenotypes, N = 15)
[26] = Streptococcus pneumoniae (PSSP, N = 31)
[27] = Haemophilus influenzae (all phenotypes, N = 40)
[28] = Haemophilus influenzae (bla negative, N = 24)
[29] = Haemophilus influenzae (bla positive, N = 16)
[30] = Staphylococcus aureus (CNS, N = 16)
[31] = Staphylococcus aureus (CS, N = 14)
[32] = Staphylococcus aureus (all phenotypes, N = 30)
[33] = MRSA, Staphylococcus aureus (MRSA, N = 11)
[34] = MSSA, Staphylococcus aureus (MSSA, N = 19)

## CC[C@H]1OC(=O)[C@H](C)[C@@H](O[C@H]2C[C@@](C)(OC)[C@@H](O)[C@H](C)O2)[C@H](C)[C@@H](O[C@@H]2O[C@H](C)C[C@H](N(C)C)[C@H]2O)[C@](C)(O)C[C@@H](C)CN(C)[C@H](C)[C@@H](O)[C@]1(C)O [Azithromycin]
[1]
  MIC50: > 8 µg/mL
  MIC90: > 8 µg/mL
[2]
  % S: 100.0%
  MIC50: 0.03 µg/mL (≈ 0.0401 µM)
  MIC90: 0.03 µg/mL (≈ 0.0401 µM)
  MIC Range: 0.015 to 0.06 µg/mL
[3]
  % S: 74.0%
[3]; read-out: MIC50
  MIC50: 0.06 µg/mL (≈ 0.0801 µM)
[3]; read-out: MIC90
  MIC90: > 8 µg/mL
[4]; [22]
  % S: 16.7%
  MIC50: > 8 µg/mL
[4]; [23]
  % S: 33.3%
  MIC50: > 8 µg/mL
[4]; Staphylococcus epidermidis (MRSE, N = 9)
  % S: 0.0%
[4]; [24]
  % S: 66.7%
  MIC50: 0.5 µg/mL (≈ 0.668 µM)
[4]; [25]
  % S: 26.7%
  MIC90: > 8 µg/mL
  MIC50: > 8 µg/mL
[4]; MRSE, Staphylococcus epidermidis (MRSE, N = 9)
  MIC50: > 8 µg/mL
[5]
  % S: 26.7%
  MIC50: > 8 µg/mL
  MIC90: > 8 µg/mL
[6]
  % S: 85.1%
[6]; read-out: MIC50
  MIC50: 0.06 µg/mL (≈ 0.0801 µM)
[6]; read-out: MIC90
  MIC90: 8 µg/mL (≈ 10.7 µM)
[7]
  % S: 34.0%
  MIC50: > 8 µg/mL
  MIC90: > 8 µg/mL
[8]; Legionella pneumophila
  MIC50: 0.12 µg/mL (≈ 0.16 µM)
  MIC90: 1 µg/mL (≈ 1.34 µM)
[8]; Legionella pneumophila (N = 50)
  MIC Range: 0.03 to 1 µg/mL
[9]
  % S: 46.7%
  MIC50: > 8 µg/mL
  MIC90: > 8 µg/mL
[10]; MRSE, S. epidermidis MRSE-CR, N 24
  MIC90: > 8 µg/mL
[10]; MRSE, S. epidermidis MRSE-CS, N 27
  MIC90: > 8 µg/mL
[10]; S. epidermidis MSSE-CR, N 10
  MIC90: > 8 µg/mL
[10]; S. epidermidis MSSE-CS, N 50
  MIC90: > 8 µg/mL
[11]
  % S: 73.0%
[11]; read-out: MIC50
  MIC50: 0.06 µg/mL (≈ 0.0801 µM)
[11]; read-out: MIC90
  MIC90: > 8 µg/mL
[12]; Streptococcus pneumoniae (PISP, N = 2)
  % S: 0.0%
[12]; Streptococcus pneumoniae (PRSP, N = 2)
  % S: 50.0%
[12]; [26]
  % S: 67.7%
  MIC50: 0.06 µg/mL (≈ 0.0801 µM)
  MIC90: >8 µg/mL
[12]; Streptococcus pneumoniae (all phenotypes, N = 35)
  % S: 62.9%
[12]; Streptococcus pneumoniae (all phenotypes, N = 35), read-out: MIC50
  MIC50: 0.06 µg/mL (≈ 0.0801 µM)
[12]; Streptococcus pneumoniae (all phenotypes, N = 35), read-out: MIC90
  MIC90: > 8 µg/mL
[13]; [27]
  % S: 100.0%
  MIC Range: ≦0.004-2 μg/mL
  MIC50: 0.5 µg/mL (≈ 0.668 µM)
  MIC90: 1 µg/mL (≈ 1.34 µM)
[13]; [28]
  % S: 100.0%
  MIC Range: ≦0.004-2 μg/mL
  MIC50: 0.5 µg/mL (≈ 0.668 µM)
  MIC90: 2 µg/mL (≈ 2.67 µM)
[13]; [29]
  % S: 100.0%
  MIC Range: 0.06 to 1 µg/mL
  MIC50: 0.5 µg/mL (≈ 0.668 µM)
  MIC90: 1 µg/mL (≈ 1.34 µM)
[14]
  % S: 53.2%
[14]; read-out: MIC50
  MIC50: 0.06 µg/mL (≈ 0.0801 µM)
[14]; read-out: MIC90
  MIC90: > 8 µg/mL
[15]
  % S (susceptible isolates, CLSI): 62.9%
[15]; Streptococcus pneumoniae
  MIC50: 0.06 µg/mL
  MIC90: > 8 µg/mL
[16]
  % S: 54.5%
  MIC50: 1 µg/mL (≈ 1.34 µM)
  MIC90: > 8 µg/mL
[17]
  MIC50: 8 µg/mL (≈ 10.7 µM)
  MIC90: > 8 µg/mL
[18]
  % S: 16.0%
  MIC50: > 8 µg/mL
  MIC90: > 8 µg/mL
[19]; MRSA, S. aureus MRSA-CR, N 17, read-out: MIC90
  MIC90: > 8 µg/mL
[19]; MRSA, S. aureus MRSA-CS, N 9, read-out: MIC90 (due to limited isolates, highest MIC value is given)
  MIC90: > 8 µg/mL
[19]; MSSA, S. aureus MSSA-CR, N 17, read-out: MIC90
  MIC90: > 8 µg/mL
[19]; MSSA, S. aureus MSSA-CS, N 144, read-out: MIC90
  MIC90: > 8 µg/mL
[20]
  MIC50: > 8 µg/mL
  MIC90: > 8 µg/mL
[21]; [30]
  % S: 43.8%
  MIC50: > 8 µg/mL
  MIC90: > 8 µg/mL
[21]; [31]
  % S: 64.3%
  MIC50: 1 µg/mL (≈ 1.34 µM)
  MIC90: > 8 µg/mL
[21]; Staphylococcus aureus (MRSA, N = 11)
  % S: 9.1%
[21]; Staphylococcus aureus (MSSA, N = 19)
  % S: 78.9%
[21]; [32]
  % S: 53.3%
  MIC50: 1 µg/mL (≈ 1.34 µM)
  MIC90: > 8 µg/mL
[21]; [33]
  MIC50: > 8 µg/mL
  MIC90: > 8 µg/mL
[21]; [34]
  MIC50: 1 µg/mL (≈ 1.34 µM)
  MIC90: > 8 µg/mL
